{"source": "patent US20080063601A1", "about": "“Compositions and methods relating to polycystic kidney disease” (priority 2004, published 2008)", "format_in_all_cases": "cell-based", "key": {"[1]": {"test_system": "Pkd1^−/− murine kidney epithelial cells", "experiment": "Growth, p21 and active caspase-3 in Pkd1−/− kidney epithelial cells", "details": "100 nM", "procedure": "Total cell lysates (0.5% Triton X-100, 50 mM Tris pH 7.4, 150 mM NaCl, […]) were prepared for Western blot analysis and samples were run out by SDS-PAGE as per manufacturers' protocols. Brightfield images of cells were taken using a 10× or 40× objective. Confocal microscopy (40×) was used for immunofluorescence imaging of polycystin-2.\nCalcium response to triptolide was, thus, shown to be dependent on polycystin-2. The biological response to calcium flux was next assessed in the murine Pkd1^−/− cell line, by adding 100 nM triptolide to the cultured cells and observing cell growth over time. Within the first 24 hours of culture, a minimal number of detached cells was observed. […] In the absence of triptolide, this cell line underwent a population doubling every 48 hours. […] It is possible that additional signaling pathways are activated by triptolide when Pkd1 is expressed. […] Therefore, Applicant assessed whether the inhibition of proliferation observed was due to p21 re-expression upon triptolide treatment."}, "polycystin-2 [2]": {"test_system": "polycystin-2", "experiment": "Fluo-4 calcium imaging in murine kidney epithelial cells", "procedure": "(§1) Cells were plated on coverslips and loaded with Fluo-4 (Molecular Probes) diluted in DMSO/pluronic for 30 minutes prior to imaging. Cells were perfused with a calcium imaging buffer (HEPES, NaCl, KCl, MgSO4 and CaCl2) ±100 nM triptolide. All cell traces are indicative of individual cellular fluorescence and calcium release. Data is presented as change of fluorescence over baseline control (before triptolide addition).\n(§2) Murine kidney epithelial cell lines with differing polycystin-1 or polycystin-2 expression were used to establish a cellular based mechanism for polycystin-2 mediated calcium release in response to triptolide. Because the biochemical purification analysis identified polycystin-2 as a putative triptolide binding protein, Applicant assessed whether the calcium release was dependent upon expression of polycystin-1. Epithelial cells derived from the proximal nephric tubules of Pkd1^−/− mice were first examined to determine if calcium release was observed when 100 nM of triptolide was perfused through the imaging chamber. […] To strengthen the evidence that polycystin-2 was necessary for calcium release elicited by triptolide addition, it was reconstituted by stable expression of Pkd2 into the background of Pkd2^−/− cells, which were assessed for sensitivity to triptolide."}, "polycystin-2 [3]": {"molecular_target": "T1, polycystin-2 (Mus musculus, UniProt O35245)", "T1 construct": "endogenous in cells; host or cells: Pkd1-/- (PN24) murine kidney proximal tubule epithelial cells", "T1 sequence (O35245 1-966)": "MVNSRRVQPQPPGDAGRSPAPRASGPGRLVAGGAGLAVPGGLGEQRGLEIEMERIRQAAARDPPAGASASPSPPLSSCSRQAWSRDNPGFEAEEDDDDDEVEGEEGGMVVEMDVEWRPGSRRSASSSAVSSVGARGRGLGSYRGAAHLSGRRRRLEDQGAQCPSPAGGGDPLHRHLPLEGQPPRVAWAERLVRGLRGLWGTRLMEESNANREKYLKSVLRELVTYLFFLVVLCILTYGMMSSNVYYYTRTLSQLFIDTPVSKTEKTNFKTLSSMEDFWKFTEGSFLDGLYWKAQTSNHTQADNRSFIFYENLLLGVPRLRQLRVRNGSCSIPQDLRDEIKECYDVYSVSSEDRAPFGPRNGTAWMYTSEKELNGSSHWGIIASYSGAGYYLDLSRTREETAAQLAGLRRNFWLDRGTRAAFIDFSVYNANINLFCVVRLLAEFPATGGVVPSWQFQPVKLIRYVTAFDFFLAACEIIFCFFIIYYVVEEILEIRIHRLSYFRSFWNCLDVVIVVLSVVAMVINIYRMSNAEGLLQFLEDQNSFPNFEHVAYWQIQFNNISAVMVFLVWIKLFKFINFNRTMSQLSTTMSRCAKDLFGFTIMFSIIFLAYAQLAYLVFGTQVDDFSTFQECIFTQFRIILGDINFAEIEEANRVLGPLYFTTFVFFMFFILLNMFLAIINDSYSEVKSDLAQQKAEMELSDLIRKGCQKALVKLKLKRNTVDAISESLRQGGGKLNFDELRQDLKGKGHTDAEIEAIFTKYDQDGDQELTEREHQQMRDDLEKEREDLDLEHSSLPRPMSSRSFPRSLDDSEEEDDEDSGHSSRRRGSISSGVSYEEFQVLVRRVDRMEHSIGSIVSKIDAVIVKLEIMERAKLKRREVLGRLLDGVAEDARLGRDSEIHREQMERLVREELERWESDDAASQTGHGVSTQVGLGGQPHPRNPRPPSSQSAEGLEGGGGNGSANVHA", "experiment": "Fluo-4 calcium imaging in murine kidney epithelial cells", "details": "Pkd1^−/− cells, 100 nM perfused", "procedure": "as §1, §2"}}}
{"molecule": "CC(C)[C@]12O[C@H]1[C@@H]1O[C@]13[C@]1(O[C@H]1C[C@H]1C4=C(CC[C@@]13C)C(=O)OC4)[C@@H]2O", "note": "[triptolide]", "values": [{"measurement": "active caspase-3 (western blot)", "setting": "[1]", "result": "failed to implicate triptolide induced apoptosis"}, {"measurement": "p21 expression (western blot)", "setting": "[1]; 96 hour time course", "result": "upregulated"}, {"measurement": "cell growth", "setting": "[1]; over 96 hours", "result": "growth arrested"}, {"measurement": "calcium release (Fluo-4 fluorescence)", "setting": "polycystin-2 [2]; Pkd2^−/− cells, 100 nM perfused", "result": "no calcium release was detected"}, {"measurement": "calcium release (Fluo-4 fluorescence)", "setting": "polycystin-2 [2]; Pkd2 re-expressed (Rex) in Pkd2^−/− background, 100 nM", "result": "restored calcium release"}, {"measurement": "calcium release (Fluo-4 fluorescence)", "setting": "polycystin-2 [3]", "result": "clear rise in intracellular calcium levels"}]}
